Measurements reported in patent US20140248374A1, “COMPOSITIONS AND MULTI-STEP METHODS OF USING THE SAME FOR THE TREATMENT OF JELLYFISH STINGS” (UNIVERSITY OF HAWAII, priority 2011, published 2014).

Experiments:
[1] = system: Chironex fleckeri (the Australian box jellyfish) venom; assay: Survival time following lethal doses of venom in mice; format: in vivo
[2] = system: human washed red blood cells (RBC, 2%) subjected to Alatina moseri venom; assay: Venom-induced hemolysis of washed RBC, 96-well plate, plasma hemoglobin read spectrophotometrically; format: cell-based; conditions: 1 hour at 37° C., FIG. 1
Description: Using a 96-well plate, human washed red blood cells (RBC, 2%) were subjected to Alatina moseri venom (6.4 U/mL/%). And treated simultaneously with a dose of zinc gluconate administered to a final concentration of from 0 to 25 mM zinc gluconate in combination with a dose of copper gluconate administered to a final concentration of from 0 to 128 μM. At the end of the incubation period, the 96 well plate was centrifuged briefly at 4° C. to pellet red blood cells from plasma. Plasma hemoglobin levels were then determined spectrophotometrically.

hemolytic toxins = conditions: in the presence of 10 mM D-lactulose; cited from earlier work

Zinc
survival time [1]: increase survival time

copper gluconate
inhibition of venom-induced hemolysis ([2]; copper gluconate (0 to 128 μM) with between 0 mM and 12.5 mM zinc gluconate): substantially increased the baseline inhibition | hemolysis after exposure to venom ([2]; up to 128 μM copper gluconate added to 25 mM zinc gluconate): practically eliminated hemolysis

OC[C@H]1O[C@@H](O[C@@H]2[C@@H](CO)O[C@](O)(CO)[C@H]2O)[C@H](O)[C@@H](O)[C@H]1O [D-lactulose]
hemolysis (hemolytic toxins): dramatic absence of hemolysis

zinc gluconate
inhibition of venom-induced hemolysis ([2]; zinc gluconate alone (baseline), 2% RBC, Alatina moseri venom 6.4 U/mL/%): baseline inhibition of venom-induced hemolysis
